In US9435786B2, “Method for determining differentiation level of pluripotent stem cells” (HAMAMATSU PHOTONICS K.K., priority 2012, dated 2016):

Tests used:
Type in all cases: cell-based
[1] = test system: 253G1 iPS cell line derived from a human adult fibroblast; assay: Flatness of cell surface in a whole visual field, reflection quantitative phase microscope (Example 1); conditions: 12.5 μM retinoic acid, cultured another 4 days
Experimental: Onto an antireflectively coated glass bottom dish with 35 mm diameter, a 253G1 iPS cell line derived from a human adult fibroblast was seeded at 10 to 20 colonies/dish and cultured on feeder using a Primate ES Medium (manufactured by ReproCELL Incorporated, a commercial name: RCHEMD001) containing 4 ng/mL human basic FGF in the final concentration. The size of one colony was around 200 μn. As the feeder cells, mouse lung fibroblasts were used. The cells were cultured until the third day after the seeding. The medium was replaced once a day. […]
The shape of the cells was observed using a reflection quantitative phase microscope. […]
The bottom surface and surface shapes of the cell were extracted as follows. By using a reflection quantitative phase microscope, three-dimensional data for the cells in a 60 μm×80 μm visual field were obtained every 0.125 μm in the horizontal direction and every 0.32 μm in the vertical direction, and from the obtained data, tomogram images were created. […] From the obtained bottom surfaces and surface shapes, the height of the surface of the cells was measured. The flatness was calculated as a standard deviation of height of the surface of the cells which was standardized with a mean value of height of the surface of the cells, and a statistical processing was done.

[2] = test system: 253G1 iPS cell line derived from a human adult fibroblast; assay: Slope of variogram as flatness, per ROI (Example 4); conditions: Δr 5 μm to 15 μm, ROI unit
From the text: The flatness may also be a slope of a variogram in a horizontal distance between the predetermined two points. In this case, as the numerical value is smaller, the cell is flatter and less differentiated, and as the numerical value is larger, the cell is less flat and is more differentiated. The horizontal distance between the predetermined two points is not limited in particular, as long as the distance is between points enough to definitely determine the difference between undifferentiated pluripotent stem cell and differentiated cell. The relationship between a mean square height difference and a slope of a variogram can be represented by formula (III). MSHD(Δr)∝Δr^S (III)
wherein S is a slope of a graph which represents a variogram in a double logarithmic manner. It should be noted that because of the nature of a log-log graph, even when constantly multiplying the abscissa Δr or ordinate MSHD through the standardization, the graph is only translated parallelly and the slope S is constant with respect to the constantly multiplied abscissa and ordinate. In addition, as shown in the above-mentioned document of Glenn, N. et al., it is a known mathematical approach to represent a variogram by log-log graph and evaluate the statistical nature of the surface shape by slope S.
Under the same condition as that of Example 3, a variogram analysis was performed using a value of MSHD which was standardized with a mean value of height of the surface of the cells, and a slope of the variogram when the Δr was within a range of 5 μm to 15 μm was calculated as the flatness, using formula (III) as described above. Then, a statistical analysis was done to perform Student's t-test.

[3] = test system: 253G1 iPS cell line derived from a human adult fibroblast; assay: Flatness per ROI as standard deviation of height standardized with mean height (Example 2); conditions: ROI unit, 12.5 μM retinoic acid
Experimental: Onto an antireflectively coated glass bottom dish with 35 mm diameter, a 253G1 iPS cell line derived from a human adult fibroblast was seeded at 10 to 20 colonies/dish and cultured on feeder using a Primate ES Medium (manufactured by ReproCELL Incorporated, a commercial name: RCHEMD001) containing 4 ng/mL human basic FGF in the final concentration. The size of one colony was around 200 μn. As the feeder cells, mouse lung fibroblasts were used. The cells were cultured until the third day after the seeding. The medium was replaced once a day.
A sample of the iPS cells for differentiation, the medium of which was replaced with a Primate ES Medium containing 4 ng/mL human basic FGF and 12.5 μM retinoic acid in the final concentration on the second day after the seeding, was cultured for another 4 days. Retinoic acid is generally used as a reagent for inducing differentiation. In addition, for a control of differentiated cells, MCF7 cells were used which were human breast cancer-derived epithelial cells. The MCF7 cells were seeded at 20% cell density and cultured for 3 days to be approximately confluent using 10% FBS-containing DMEM medium. In each culture system except the MCF7 cell culture system, the medium was replaced once a day.
As to 3 colonies of the undifferentiated iPS cells and 3 colonies of the iPS cells cultured by supplementing retinoic acid, 7 to 15 visual fields around the center of each colony were analyzed. Each visual field was partitioned into six ROIs, and the bottom surfaces and surface shapes of the cells were extracted for each ROI unit to measure the height of the surface of the cells under the same condition as that of Example 1. The size of the ROI was […]×23 μm. The flatness was calculated as a standard deviation of height of the surface of the cells which was standardized with a mean value of height of the surface of the cells, and a statistical processing was done to perform Student's t-test.

[4] = test system: 253G1 iPS cell line derived from a human adult fibroblast; assay: Variogram analysis, MSHD standardized with mean height, per ROI (Example 3); conditions: Δr 15 μm, ROI unit
From the text: The flatness may also be a value of MSHD in a predetermined horizontal distance. When a surface shape Z (x, y) is given and two points, A (x1, y1) and B (x2, y2), which are apart from each other at a Δr in the horizontal direction on the Z, are selected, the MSHD can be represented by formula (I). MSHD(Δr)=<(z(x1,y1)−z(x2,y2))^2> (I)
wherein z (x1, y1) is a height of a surface of the cell at A, z (x2, y2) is a height of a surface of the cell at B, and < > is an ensemble average. In addition, (x1, y1) and (x2, y2) are in any combination that satisfies formula (II). Δr=((x1−x2)^2+(y1−y2)^2)^1/2 (II)
Under the same condition as that of Example 2, three-dimensional data for the undifferentiated iPS cells and the iPS cells cultured by supplementing retinoic acid were obtained every 0.125 μm in the horizontal direction and every 0.32 μm in the vertical direction, and from the obtained data, tomogram images were created. From the created tomogram images, the bottom surfaces and surface shapes of the cells were extracted and a variogram analysis was performed. Specifically, a value of MSHD when the Δr was within a range of 0.25 μm to 15 μm was calculated from formula (I) as described above, and standardized with a mean value of height of the surface of the cells.
Next, a value of MSHD when the Δr was […] was calculated and standardized with a mean value of height of the surface of the cells to calculate the flatness. The result was shown as a logarithmic graph (FIG. 6). In a statistical analysis, the common logarithm of the result was calculated to perform Student's t-test (Table 3).

[5] = test system: 253G1 iPS cell line derived from a human adult fibroblast; assay: Flatness as MSHD per visual field unit (Example 6)
Experimental: By using images shot using each sample in Example 2 of one colony (15 visual fields) for the undifferentiated iPS cells and 2 colonies (11 and 13 visual fields, respectively) for the iPS cells cultured by supplementing retinoic acid, the height of the surface of the cells for each visual field unit was measured using a reflection quantitative phase microscope under the same condition as that of Example 2. A value of MSHD when the Δr was 5 μm was calculated and standardized with a mean value of height of the surface of the cells, then the common logarithm was taken and the flatness was calculated. A statistical analysis was done to perform Student's t-test.

## CC1=C(/C=C/C(C)=C/C=C/C(C)=C/C(=O)O)C(C)(C)CCC1 [Retinoic acid, retinoic acid]
[1]; 60 μm×80 μm visual field
  Mean value of height of the surface of the cells: 6.25 μm
[1]; iPS cells, larger value = less flat
  Flatness (standard deviation of height standardized with mean height): 18.9%
[2]; colony RA-1
  Flatness (slope of variogram): 0.848
[2]; colony RA-2
  Flatness (slope of variogram): 0.744
[2]; colony RA-3
  Flatness (slope of variogram): 0.880
[3]; colony RA-1
  Flatness (standard deviation of height standardized with mean height): 0.130
[3]; colony RA-2
  Flatness (standard deviation of height standardized with mean height): 0.107
[3]; colony RA-3
  Flatness (standard deviation of height standardized with mean height): 0.123
[4]; colony RA-1
  Flatness (common logarithm of MSHD standardized with mean height): −1.392
[4]; colony RA-2
  Flatness (common logarithm of MSHD standardized with mean height): −1.517
[4]; colony RA-3
  Flatness (common logarithm of MSHD standardized with mean height): −1.425
[5]; colony RA-1, Δr 5 μm
  Flatness (common logarithm of MSHD standardized with mean height): −1.657
[5]; colony RA-2, Δr 5 μm
  Flatness (common logarithm of MSHD standardized with mean height): −1.796
